Laboratory results as given in patent publication US20120190615A1, “METHODS AND COMPOSITIONS FOR INDUCING WEIGHT LOSS” (Sanford-Burnham Medical Research Institute, priority 2011, published 2012).

Legend:
C3H10T1/2 cells = assay: Oxygen consumption / uncoupled respiration of cultured mesenchymal stem cells; type: cell-based, mouse
From the text: To determine whether the increased respiration was uncoupled from ATP synthesis, oligomycin-insensitive respiration was first assayed as a measure of uncoupled respiration. Oligomycin inhibits F1 ATP synthetase to suppress only oxidative phosphorylation-associated respiration.

HIB1 cells = assay: Differentiation of HIB1 brown preadipocytes (lipid accumulation, mitochondrial biogenesis); type: cell-based; details: 24 hours, absence of standard induction cocktail
Experimental: To further investigate the role of OX in BAT differentiation, the effect of OX on the preadipocyte cell line HIB1 was evaluated. […] Expression of genes functioning in lipid metabolism and mitochondrial biogenesis was elevated while the anti-adipogenic factors […], Pref1, and Wnt10 were expressed at very low levels (FIG. 16).
HIB1 cells were stably transfected with lentivirus over-expressing orexin (Len-OX) and compared to vector controls in the absence or presence of exogenous OX (100 nM), Cells were cultured for 7 days in the absence of differentiation medium and stained with Oil Red O. By day 6 of adipogenic differentiation, orexin-expressing cells had undergone normal BAT differentiation as scored by lipid accumulation.
Brown fat morphological defects seen in both adult and newborn OXR1 KO mice were similar to those observed in OX KO mice. […] To examine the cellular and molecular consequences of OXR1 depletion, lentiviral vectors were used to express a short hairpin (sh) shRNA targeting OXR1 (shOXR1; Open Biosystems, Inc., catalog no. RMM4431-98766481) or a scrambled shRNA control (Open Biosystems, Inc., catalog no. RHS4346) in HIB1 mesenchymal cells. […] After 5 days of differentiation, cultures expressing the scrambled shRNA control had undergone brown fat differentiation as scored by Oil Red O staining and shown in FIG. 18. […]

[1] = test system: primary brown preadipocytes; assay: Differentiation of primary brown preadipocytes (Oil Red O); type: cell-based, mice
From the text: To assess differentiation of primary brown adipocytes, iBAT preadipocytes were isolated from 1-day-old mice and then differentiated in the presence of OX. Differentiation was confirmed by Oil Red O staining which visualizes lipid accumulation (FIG. 7). […] Taken together. OX activates a full program of brown fat adipogenesis by suppressing adipogenic inhibitors, including BAT regulators, elevating mitochondrial biogenesis and oxygen consumption, and inducing uncoupled respiration.
To investigate whether lack of OXR1 impaired BAT differentiation potential, primary brown preadipocytes from OXR1 knockout mice were isolated and differentiated. Generation of wild-type primary brown preadipocyte cell lines was derived from newborn wild-type mice as described previously by Klein et al. (Bioessays, 24: 382-388, 2002), which is hereby incorporated by reference in its entirety. Brown preadipocytes isolated from C57BL-6 mice served as positive control. All cell lines were maintained in Dulbecco's modified […] medium (DMEM), high glucose, supplemented with 10% FBS at 37° C. in a 5% CO2 environment. To induce adipogenesis, the cells were treated for 3 days with either BMP7 or 100 nM OX, at which time they were confluent. Cells were then incubated in adipogenic medium containing 0.125 mM indomethaein, […] dexamethazone, and […] 3-isobutyl-1-methyxanthine (IBMX) supplemented by 20 nM insulin as described by Tseng et al., (Nature, 454: 1000-1004, 2008) which is hereby incorporated by reference in its entirety.

[2] = test system: Mouse embryonic fibroblasts (MEFs); assay: Differentiation of mouse embryonic fibroblasts to a BAT lineage; type: cell-based; details: 3-day treatment, 7-10 days without induction cocktail, Oil Red O
From the text: Mouse embryonic fibroblasts (MEFs) resemble mesenchymal cells in their ability to differentiate into various mesenchymal lineages. To determine whether OX triggers commitment of embryonic fibroblasts to a BAT lineage, MEFs isolated at […] were exposed to a differentiation protocol involving a 3-day treatment with Orexin A and BMP-7, and differentiation in the absence of the standard induction cocktail of IBMX, thiazolidone, and indomethacin for a further 7-10 days.

BMP signaling = BMP signaling in C3H10T1/2 cells (qPCR of Bmpr1a and BMP-7, Smad 1/5/8 phosphorylation); type: cell-based, mouse; details: 100 nM OX 3 days
From the text: Bone morphogenic proteins, which are members of the TGF-β superfamily, control critical steps in development and differentiation and are important regulators of both WAT and BAT adipogenesis. BMP-2 and -4 induce white fat adipogenesis, while BMP-7 enhances brown fat traits. BMP-7 functions through interacting with BMP receptors, which mediate Smad 1/5/8 phosphorylation, to stimulate brown fat adipogenesis.

C57BL/6 mice = assay: Single intraperitoneal OX injection, indirect calorimetry (CLAMS) and iBAT analysis; type: in vivo; details: single 30 mg kg−1 i.p. dose
Experimental: One dose of 30 mg kg^−1 OX was administered intraperitoneally in a single dose to 6-8 week C57BL/6 mice, and metabolic rates and energy expenditure of those mice were then compared to 1 mg kg^−1 isoproterenol- or vehicle (PBS) control-injected mice. Isoproterenol is a beta-sympathomimetic and serves as a reference for Ucp1 expression and brown fat activity. Metabolic rates were measured by indirect calorimetry using the Comprehensive Lab Animal Monitoring System (CLAMS, Columbus Instruments). Food and water were available ad libitum. Mice were acclimatized to individual cages for 24 hours prior to recording, and then underwent 24 hours of monitoring.
Increased energy expenditure was positively correlated with iBAT lipolysis, as evident from depletion of fat droplets. […] As a consequence, core body temperature was elevated by OX injection.

[3] = cited from earlier work

For “orexin-A (EPLPDCCRQKTCSCRLYELLHGAGNHAAGILTL) [OX, human orexin A, cat; No. 24470, Anaspec]”, the “oxygen consumption, higher” value (C3H10T1/2 cells; basal conditions) was 15 fold, the “oxygen consumption of treated cells in the presence of oligomycin” value (C3H10T1/2 cells; oligomycin) was “efficiently consumed oxygen” and the “share of OX-induced respiration uncoupled from ATP synthesis” value (C3H10T1/2 cells; oligomycin-insensitive respiration) was “More than half”. For the same substance, the “lipid accumulation and mitochondrial biogenesis” value (HIB1 cells) was “induced extensive lipid accumulation and mitochondrial biogenesis”, the “differentiation of wild-type preadipocytes based on lipid accumulation” value ([1]; 3 days BMP7 or 100 nM OX, then adipogenic medium) was “enhanced differentiation” and the “adipogenesis of iBAT preadipocytes from 1-day-old mice” value ([1]; differentiated in the presence of OX) was “robust adipogenesis within 7 days”. For the same substance, the “differentiation of brown preadipocytes from OXR1-null mice” value ([1]; in the presence of OX) was “little differentiation capacity”, the “phenotype of treated MEFs” value [2] was “adopted a BAT phenotype” and the “BMP-receptor 1A and BMP-7 mRNA expression” value (BMP signaling) was “induced”. For the same substance, the core body temperature (C57BL/6 mice) was “elevated”, the food consumption (C57BL/6 mice) was “increased food consumption” and the “increase in whole-body energy expenditure” value (C57BL/6 mice) was 23-25%. The oxygen consumption (C57BL/6 mice) was “stimulated oxygen consumption”, the physical activity (C57BL/6 mice) was “decreased physical activity” and the “prdm16, Pgc1-alpha, C/ebp-alpha, Dio2, Ucp-1 expression in BAT” value (C57BL/6 mice) was “induced”. For the same substance, the “extent of iBAT lipolysis” value (C57BL/6 mice; isoproterenol 1 mg kg−1 reference) was “comparable to that induced by isoproterenol”, the blood-brain barrier permeation ([3]; in contrast with orexin-B) was “blood-brain barrier permeant” and the liposolubility ([3]; versus orexin-B) was “higher liposolubility than orexin-B”. The stability ([3]; versus orexin-B) was “much more stable than Orexin-B”.
